Test results from US20110009616A1, “AGENT FOR PREVENTING ARTERIOSCLEROSIS” (priority 2006, published 2011).

What was measured:
[1] = system: living cells (mitochondria activity); experiment: Cytotoxicity, number of living cells by Cell counting Kit-8 (WST-8) (Example 5); type: cell-based; settings: 7 hours with compound; concentrations where the inhibitory activities were effective; results not shown
Protocol: In order to examine cytotoxicities of the compounds in Examples 1 to 4 and Comparative Examples 1 to 9, the number of living cells was measured as follows. As a method for measuring the number of living cells, a MTT method using a reduction of MTT (3-(4,5-dimethyl-2-thiazolyl)-2,5-diphenyltetrazolium bromide) to formazan (formed as a poorly soluble precipitate) by dehydrogenase in mitochondria, and the like, are generally used. Thus, “Cell counting Kit-8” (manufactured by Dojindo Laboratories, WST-8 which forms a water soluble formazan is used instead of MTT), a modified method of the MTT method, was used for the measurement of the number of living cells. Specifically, 100 μL of cells were seeded into inner 60 wells of a 96-well plate (manufactured by Falcon) so as to be 3.0×10^4 cells/mL, respectively (in order to avoid temperature variation, 100 μL of a culture medium was only added into the outer 36 wells). After cultivating for 2 days (37° C.), 50 μL of the culture supernatant was removed and 50 μL of a new culture medium containing each compound with an appropriate dilution rate was added. After adding the new culture medium containing each compound, the cells were cultivated for 7 hours. After 7 hours, each well was washed with 100 μL of the culture medium without the compounds three times, and then 3 μL of a culture medium containing “WST-8”, a “Cell counting Kit-8” solution, was added to each well. After cultivating for 1 hour, absorbance at 450 nm of each culture medium was measured and converted to the number of living cells. It is considered that three washing operations in the process omit the effect of the compounds in the external solution on the absorbance.

bLOX-1 [2] = biological target: T1, bLOX-1 (Bos taurus, UniProt P79391); experiment: Plate assay: binding of oxidized LDL to recombinant bLOX-1 (Test Example 1); set-up: 6xHis (N); made in house; host or cells: E. coli; species or system bovine; settings: final concentration of 16 μM, FIG. 1; for binding rate of oxidized LDL to bLOX-1 (inhibition of binding): control without compounds = 100
Protocol: A LOX-1 antagonist activity of the agent for preventing arteriosclerosis obtained in the above-mentioned Example was evaluated on a LOX-1 binding inhibition rate to oxidized LDL using a recombinant LOX-1 protein obtained from E. coli.
As for the recombinant LOX-1, in cDNA of LOX-1 derived from bovine (bLOX-1) or derived from human (hLOX-1), a sequence to the C-terminal removing a transmembrane region was inserted into a pQE30 vector having a 6-histidine tag sequence (6×His) at the N-terminal (manufactured by Qiagen) so as to have a sequence aligned to a translation frame. The vector was transformed into E. coli able to be controlled by T5 promoter and the expression of each LOX-1 was induced under induction of 1 m M of isopropyl-1-thio-β-D-[…] (IPTG). After the induction of each expression at 37° C. for 3 hours, since the recombinant LOX-1 was obtained from an insoluble fraction, E. coli was lysed in a buffer containing 6 M guanidine hydrochloride and purified by affinity column chromatography using a Ni-NTA agarose column (manufactured by Qiagen) as the marker of 6×His (solvent: phosphoric acid buffer). Furthermore, each of the elution fractions containing LOX-1 was dialyzed in a 20 mM tris buffer (pH 9.0) and a 8M urea containing buffer, applied to a HiTrap Q column, an anion exchanger, (manufactured by Amersham), and eluted and purified with a linear concentration gradient of NaCl. Each of the fractions containing LOX-1 obtained above was reduced in a buffer containing excess amount of DTT (dithiothreitol), and then intramolecular S-S bonds were unwinded by a redox system using a mixture of oxidized […] low molecular thiol compounds. Each LOX-1 obtained above has a binding ability to the oxidized LDL and will be used as a LOX-1 standard for the following plate assays.
The plate assay was carried out using MaxiSorp Immuno Plate (96-well type, manufactured by NUNC). Each LOX-1 purified above was prepared with a PBS buffer so as to be 5 μg/mL, and 100 μL of the solution was applied to each well. After leaving at 4° C. overnight, each well was washed with 400 μL of a PBS buffer twice (400 μL×2) and 300 μL of a PBS buffer containing 25% BlockAce (manufactured by Dainippon Sumitomo Pharma Co., Ltd.) was applied to each well. After leaving at 4° C. overnight, each well was washed with 400 μL of a PBS buffer twice (400 μL×2), a solution of ethyl pheophorbide a was prepared with a PBS buffer containing 1% bovine serum albumin (BSA) so as to have an appropriate dilution rate, and 100 μL of the solution was applied to each well. After leaving at 4° C. overnight, each well was washed with 400 μL of a PBS buffer three times (400 μL×3), a solution of oxidized LDL was prepared with a PBS buffer so as to be 5 μg/mL, and 100 μL of the solution was applied to eachr well. After leaving at 4° C. overnight, each well was washed with 400 μL of a PBS buffer three times (400 μL×3), a horseradish peroxidase-conjugated anti-apolipoprotein B antibody (manufactured by The Binding Site) was diluted 1000 times with a PBS buffer, and 100 μL of the solution was applied to each well. After leaving at room temperature for 2 hours, each well was washed with 400 μL of a PBS buffer five times (400 μL×5), and 100 μL of a 3,3′,5,5′-tetramethylbenzidine (TMB) peroxidase-enzyme immunoassay (EIA)-substrate-kit reagent (manufactured by Bio-Rad) was applied to each well. After an appropriate reaction period, 50 μL of 2M H2SO4 was applied to each well to stop the reaction. Finally, a LOX-1 antagonist activity (an oxidized LDL binding inhibition rate to LOX-1) was determined by detection at 450 nm.
Target sequence in this assay (P79391 57-270 limits assumed): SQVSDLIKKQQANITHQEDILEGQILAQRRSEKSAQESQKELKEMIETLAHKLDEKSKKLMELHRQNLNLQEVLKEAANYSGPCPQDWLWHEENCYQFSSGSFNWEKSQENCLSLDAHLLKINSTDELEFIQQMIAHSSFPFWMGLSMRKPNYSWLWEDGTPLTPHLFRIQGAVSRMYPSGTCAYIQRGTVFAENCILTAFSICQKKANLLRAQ

bLOX-1 [3] = biological target: T1, bLOX-1; experiment: Fluorescently labeled oxidized LDL uptake into CHO cells stably expressing bLOX-1 (Examples 6, 7); type: cell-based, bovine; set-up: By a positive screening using a full-length bLOX cDNA; expressed in transfected cells; settings: Example 7; FIG. 6
Target sequence in this assay (P79391 whole entry): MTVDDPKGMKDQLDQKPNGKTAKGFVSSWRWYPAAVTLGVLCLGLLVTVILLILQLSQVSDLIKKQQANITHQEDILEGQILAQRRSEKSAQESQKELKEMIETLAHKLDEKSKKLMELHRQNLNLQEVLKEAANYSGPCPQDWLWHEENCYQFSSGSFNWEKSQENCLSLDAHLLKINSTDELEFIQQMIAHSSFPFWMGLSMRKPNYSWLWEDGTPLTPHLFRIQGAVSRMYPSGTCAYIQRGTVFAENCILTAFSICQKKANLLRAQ

Row | Molecule | cytotoxicity (number of living cells) [1] | inhibition activity on binding of oxidized LDL to bLOX-1 (ranking among actives) (bLOX-1 [2]) | binding rate of oxidized LDL to bLOX-1 (inhibition of binding) (bLOX-1 [2]) | inhibition of DiI-OxLDL uptake in CHO cells expressing bLOX, compared with inhibition of CTB uptake (bLOX-1 [3])
1 | C=CC1=C(C)c2cc3[nH]c(c4c5nc(cc6[nH]c(cc1n2)c(C)c6CC)C(C)=C5C(=O)C4C(=O)OC)C(CCC(=O)OCC)C3C (stereo not drawn) [ethyl pheophorbide a] | did not show the cytotoxicity | high inhibition activities | inhibit the binding significantly | 
2 | C[C@@H]1[C@H](O)[C@@H](C)/C=C/C=C/CC/C=C/C=C/C=C/C=C/C(O[C@H]2O[C@H](C)[C@@H](O)[C@H](N)[C@@H]2O)CC2O[C@](O)(CC(O)C(O)CCC(O)CC(O)CC(O)CC(=O)O[C@H]1C)CC(O)C2C(=O)O (stereo partly drawn) [nystatin, Nystatin] |  |  |  | nearly equal to that of CTB
3 | hematoporphyrin | did not show the cytotoxicity | high inhibition activities | inhibit the binding significantly | 
4 | uroporphyrin III | did not show the cytotoxicity |  | inhibit the binding significantly | 
